Source: patent US6413959B1, “Method of treating depression with arylglycinamide derivatives” (Boehringer Ingelheim KG, priority 1995, dated 2002)
Where a name gives a salt, the structure may show the parent alone.

Legend:
[1] = biological target: T1, NK1-receptor (substance P-receptor) (Homo sapiens, UniProt P25103); assay: NK1-receptor affinity, displacement of 125I-labelled substance P on IM-9 cells; assay type: binding; details: human lymphoblastoma cells (IM-9) with cloned NK1-receptors
T1 construct: expressed in transfected cells; host or cells: IM-9 human lymphoblastoma cells
T1 sequence (P25103 whole entry): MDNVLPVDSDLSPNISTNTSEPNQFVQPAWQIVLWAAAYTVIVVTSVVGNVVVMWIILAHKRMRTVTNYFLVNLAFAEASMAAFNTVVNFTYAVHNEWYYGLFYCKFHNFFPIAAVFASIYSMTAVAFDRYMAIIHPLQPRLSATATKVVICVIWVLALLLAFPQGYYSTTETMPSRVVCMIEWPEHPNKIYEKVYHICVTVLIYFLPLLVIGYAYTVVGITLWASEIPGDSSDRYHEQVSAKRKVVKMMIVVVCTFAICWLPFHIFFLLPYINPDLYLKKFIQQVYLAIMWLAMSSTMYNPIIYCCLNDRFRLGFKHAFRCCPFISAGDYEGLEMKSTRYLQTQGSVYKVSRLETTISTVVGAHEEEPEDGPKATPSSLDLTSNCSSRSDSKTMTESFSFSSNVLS

Row | melting point | Ki [1] | SMILES
1 | > 240 °C |  | CN(CCc1cc(C(F)(F)F)cc(C(F)(F)F)c1)C(=O)C(c1ccccc1)N1CCC(N2CCCCC2)CC1 (centres unmarked) (as salt: hydrochloride) [Example 33]
2 | 133 to 143 °C | 1.1 nM | CN(CCc1cc(C(F)(F)F)cc(C(F)(F)F)c1)C(=O)C(c1ccccc1)N1CCC(N2CCCC2)CC1 (centres unmarked) [Example 52]
3 | 87 to 97 °C | 2.1 nM | CN(CCc1cc(C(F)(F)F)cc(C(F)(F)F)c1)C(=O)C(c1ccc2c(c1)OCO2)N1CCN(C2CCCCC2)CC1 (centres unmarked) [Example 71]
4 |  | 1.6 nM | CN(CCc1cc(C(F)(F)F)cc(C(F)(F)F)c1)C(=O)C(c1ccccc1)N1CCC(N2CCCC2)CC1 (centres unmarked) [Example 45]
5 | 118 to 120 °C |  | O=C(NCc1cc(C(F)(F)F)cc(C(F)(F)F)c1)C(c1ccccc1Br)N1CCN(C2CCCCC2)CC1 (centres unmarked) [Example 28]
6 | 235 to 238 °C | 1.4 nM | O=C(NCCc1cc(C(F)(F)F)cc(C(F)(F)F)c1)C(c1ccccc1)N1CCN(C2CCCCC2)CC1 (centres unmarked) [Example 3]
7 |  | 7 nM | O=C(C(c1ccccc1)N1CCC(N2CCCCC2)CC1)N(CCc1cc(C(F)(F)F)cc(C(F)(F)F)c1)Cc1ccccc1 (centres unmarked) [Example 76]
8 | > 240 °C (dec.) | 1 nM | CN(Cc1cc(C(F)(F)F)cc(C(F)(F)F)c1)C(=O)C(c1ccccc1)N1CCN(C2CCCCC2)CC1 (centres unmarked) [Example 4]
9 | 87 to 95 °C |  | CC(=O)N1CCN(C2CCN(C(C(=O)NCc3cc(C(F)(F)F)cc(C(F)(F)F)c3)c3ccccc3)CC2)C1=O (centres unmarked) [Example 13]
10 | 112 to 118 °C |  | O=C(NCc1cc(C(F)(F)F)cc(C(F)(F)F)c1)C(c1ccc(Cl)cc1)N1CCN(C2CCCCC2)CC1 (centres unmarked) [Example 26]
11 | 236 to 238 °C (dec.) | 1.5 nM | CN(CCc1cc(C(F)(F)F)cc(C(F)(F)F)c1)C(=O)C(c1ccccc1)N1CCN(C2CCC2)CC1 (centres unmarked) [Example 68]
12 | 107 to 111 °C |  | Cc1nc2ccccc2n1C1CCN(C(C(=O)NCc2cc(C(F)(F)F)cc(C(F)(F)F)c2)c2ccccc2)CC1 (centres unmarked)
13 | 208 to 210 °C |  | O=C(NCc1cc(C(F)(F)F)cc(C(F)(F)F)c1)C(c1ccccc1)N1CCC(n2c(=O)[nH]c3cccnc32)CC1 (centres unmarked) [Example 15]
14 |  | 6.8 nM | CC(C)N(CCc1cc(C(F)(F)F)cc(C(F)(F)F)c1)C(=O)C(c1ccccc1)N1CCC(N2CCCCC2)CC1 (centres unmarked) [Example 72]
15 |  | 1.3 nM | CN(CCc1cc(C(F)(F)F)cc(C(F)(F)F)c1)C(=O)C(c1ccccc1)N1CCC(N2CCCCC2)CC1 (centres unmarked) [Example 33]
16 | 124 to 127 °C |  | O=C(NCc1cc(C(F)(F)F)cc(C(F)(F)F)c1)C(c1cccc(Br)c1)N1CCN(C2CCCCC2)CC1 (centres unmarked) [Example 27]
17 | 228 to 232 °C |  | O=C(NCc1cc(C(F)(F)F)cc(C(F)(F)F)c1)C(c1ccc(Br)cc1)N1CCN(C2CCCCC2)CC1 (centres unmarked) [Example 21]
18 | 113 to 123 °C |  | CN(CCc1cc(C(F)(F)F)cc(C(F)(F)F)c1)C(=O)C(c1ccccc1)N1CCN(c2ccccc2)CC1 (centres unmarked) [Example 60]
19 | 244 to 246 °C (dec.) | 4.2 nM | CN(CCc1cc(C(F)(F)F)cc(C(F)(F)F)c1)C(=O)C(c1ccc(Cl)c(Cl)c1)N1CCC(N2CCCCC2)CC1 (centres unmarked) [Example 59]
20 | 212 to 216 °C (dec.) | 6.4 nM | CN(CCc1cc(C(F)(F)F)cc(C(F)(F)F)c1)C(=O)C(c1ccc(Cl)c(Cl)c1)N1CCN(C2CCCCC2)CC1 (centres unmarked) [Example 58]

Row | melting point | Ki [1] | SMILES
21 | 177 to 187 °C |  | CN(CCc1cc(C(F)(F)F)cc(C(F)(F)F)c1)C(=O)C(c1ccccc1)N1CCC(n2c(=O)[nH]c3ccccc32)CC1 (centres unmarked)
22 | 97 to 99 °C |  | O=C(NCc1cc(C(F)(F)F)cc(C(F)(F)F)c1)C(c1ccccc1)N1CCN(CCC2CCCCC2)CC1 (centres unmarked) [Example 6]
23 | 205 to 210 °C |  | O=C(NCc1cc(C(F)(F)F)cc(C(F)(F)F)c1)C(c1ccccc1)N1CCC2(CC1)C(=O)NCN2c1ccccc1 (centres unmarked)
24 | 85 to 92 °C |  | COc1ccccc1C(C(=O)NCCc1cc(C(F)(F)F)cc(C(F)(F)F)c1)N1CCN(C2CCCCC2)CC1 (centres unmarked) [Example 64]
25 | 120 to 122 °C |  | O=C(NCc1cc(C(F)(F)F)cc(C(F)(F)F)c1)C(c1ccccc1Cl)N1CCN(C2CCCCC2)CC1 (centres unmarked) [Example 29]
26 | 102 to 105 °C |  | O=C(NCc1cc(C(F)(F)F)cc(C(F)(F)F)c1)C(c1ccccc1)N1CCC(N(C(=O)c2ccccc2)c2ccccc2)CC1 (centres unmarked)
27 | 148 to 156 °C | 9.2 nM | CN(CCc1cc(C(F)(F)F)cc(C(F)(F)F)c1)C(=O)C(c1ccccc1)N1CCN(CCc2ccccc2)CC1 (centres unmarked) [Example 65]
28 | 265 to 268 °C (dec.) |  | CN(CCc1cc(C(F)(F)F)cc(C(F)(F)F)c1)C(=O)C(c1ccccc1)N1CCC2(CC1)C(=O)NCN2c1ccccc1 (centres unmarked)
29 | 210 to 218 °C |  | O=C(NCCc1cc(C(F)(F)F)cc(C(F)(F)F)c1)C(c1ccccc1Br)N1CCN(C2CCCCC2)CC1 (centres unmarked) [Example 62]
30 | 142 to 150 °C |  | COc1ccccc1C(C(=O)NCc1cc(C(F)(F)F)cc(C(F)(F)F)c1)N1CCN(C2CCCCC2)CC1 (centres unmarked) [Example 42]
31 | 192 to 199 °C |  | O=C(NCCc1cc(C(F)(F)F)cc(C(F)(F)F)c1)C(c1ccccc1)N1CCC(N2CCCCC2)CC1 (centres unmarked) [Example 25]
32 | 124 to 129 °C |  | O=C(NCc1cc(C(F)(F)F)cc(C(F)(F)F)c1)C(c1ccccc1)N1CCN(C2CCCCC2)CC1 (racemic) [Example 1, (R,S)-1-cyclohexyl-piperazinyl-4-[2-phenylacetic acid-N-(3,5-bis-trifluoromethylbenzyl)amide]]
33 | 164 to 166 °C |  | O=C(NCc1cc(C(F)(F)F)cc(C(F)(F)F)c1)C(c1ccccc1)N1CCC(Nc2ccccn2)CC1 (centres unmarked) [Example 14]
34 | 110 to 120 °C | 2.3 nM | CN(CCc1cc(C(F)(F)F)cc(C(F)(F)F)c1)C(=O)C(c1ccccc1)N1CCN(C2CCCCCC2)CC1 (centres unmarked) [Example 53]
35 | 118 to 123 °C |  | O=C(NCCCc1ccc(C(F)(F)F)cc1C(F)(F)F)C(c1ccccc1)N1CCN(C2CCCCC2)CC1 (centres unmarked) [Example 17]
36 | > 240 °C (dec.) |  | O=C(NCc1cc(C(F)(F)F)cc(C(F)(F)F)c1)C(c1ccccc1)N1CCC(N2CCCCC2)CC1 (centres unmarked) [Example 7]
37 | 110 to 115 °C |  | Cl.O=C(NCc1cc(C(F)(F)F)cc(C(F)(F)F)c1)C(c1ccccc1)N1CCC(N2C(=O)CCC2=O)CC1 (centres unmarked)
38 | 134 to 136 °C |  | O=C(NCc1cc(C(F)(F)F)cc(C(F)(F)F)c1)C(c1ccccc1)N1CCN(CCC2CC2)CC1 (centres unmarked) [Example 18]
39 | 127 to 137 °C |  | CN(CCc1cc(C(F)(F)F)cc(C(F)(F)F)c1)C(=O)C(c1ccccc1)N1CCC(C(N)=O)(c2ccccc2)CC1.Cl (centres unmarked)
40 | 155 to 172 °C |  | O=C(NCCc1cc(C(F)(F)F)cc(C(F)(F)F)c1)C(c1cccc2ccccc12)N1CCN(C2CCCCC2)CC1 (centres unmarked) [Example 38]

Row | melting point | Ki [1] | SMILES
41 | 113 to 117 °C (dec.) | 1.4 nM | CN(CCc1cc(C(F)(F)F)cc(C(F)(F)F)c1)C(=O)C(c1ccccc1)N1CCN(CC2CC2)CC1 (centres unmarked) [Example 66]
42 | 106 to 110 °C |  | CN(CCc1cc(C(F)(F)F)cc(C(F)(F)F)c1)C(=O)C(c1ccccc1)N1CCC(c2ccccc2)CC1.Cl (centres unmarked)
43 | > 220 °C (dec.) |  | NC(=O)C1(N2CCCCC2)CCN(C(C(=O)NCc2cc(C(F)(F)F)cc(C(F)(F)F)c2)c2ccccc2)CC1 (centres unmarked) [Example 11]
44 | 145 to 151 °C |  | Cl.O=C(NCc1cc(C(F)(F)F)cc(C(F)(F)F)c1)C(c1ccccc1)N1CCC(N(C(=O)c2ccccc2)c2ccccn2)CC1 (centres unmarked)
45 | 210 °C |  | O=C(NCc1cc(C(F)(F)F)cc(C(F)(F)F)c1)C(c1cc(C(F)(F)F)cc(C(F)(F)F)c1)N1CCN(C2CCCCC2)CC1 (centres unmarked) [Example 24]
46 | 123 to 133 °C (dec.) | 2.8 nM | COc1ccc(C(C(=O)N(C)CCc2cc(C(F)(F)F)cc(C(F)(F)F)c2)N2CCN(C3CCCCC3)CC2)cc1OC (centres unmarked) [Example 70]
47 | 248 to 254 °C |  | O=C(NCc1cc(C(F)(F)F)cc(C(F)(F)F)c1)C(c1ccc(Cl)c(Cl)c1)N1CCN(C2CCCCC2)CC1 (centres unmarked) [Example 23]
48 |  | 11.8 nM | CN(CCc1ccc(C(F)(F)F)cc1C(F)(F)F)C(=O)C(c1ccccc1)N1CCC(N2CCCCC2)CC1 (centres unmarked) [Example 74]
49 | 189 to 191 °C |  | CCC(=O)NC1CCN(C(C(=O)NCc2cc(C(F)(F)F)cc(C(F)(F)F)c2)c2ccccc2)CC1 (racemic) [Example 2, (R,S)-4-propionylamino-1-[2-phenylacetic acid-N(3,5-bis-trifluoromethyl-benzyl)-amide]-piperidine]
50 | 70 to 73 °C |  | O=C(O)CN(Cc1cc(C(F)(F)F)cc(C(F)(F)F)c1)C(=O)C(c1ccccc1)N1CCN(C2CCCCC2)CC1 (centres unmarked) [Example 22]
51 |  | 1.4 nM | CN(CCc1cc(C(F)(F)F)cc(C(F)(F)F)c1)C(=O)C(c1ccccc1)N1CCC(N2CCOCC2)CC1 (centres unmarked) [Example 46]
52 | 180 to 185 °C |  | O=C(NC1CCN(C(C(=O)NCc2cc(C(F)(F)F)cc(C(F)(F)F)c2)c2ccccc2)CC1)c1ccccc1 (centres unmarked) [Example 20]
53 | 218 to 223 °C |  | O=C(Nc1ccccc1)NC1CCN(C(C(=O)NCc2cc(C(F)(F)F)cc(C(F)(F)F)c2)c2ccccc2)CC1 (centres unmarked) [Example 10]
54 | > 240 °C |  | O=C(NCc1cc(C(F)(F)F)cc(C(F)(F)F)c1)C(c1ccc(F)cc1)N1CCN(C2CCCCC2)CC1 (centres unmarked) [Example 31]
55 | 215 to 224 °C |  | O=C(NCCc1cc(C(F)(F)F)cc(C(F)(F)F)c1)C(c1ccccc1Cl)N1CCN(C2CCCCC2)CC1 (centres unmarked) [Example 63]
56 | > 240 °C |  | O=C(NCc1cc(C(F)(F)F)cc(C(F)(F)F)c1)C(c1cccc(Cl)c1)N1CCN(C2CCCCC2)CC1 (centres unmarked) [Example 30]
57 |  | 1.7 nM | CCN(CCc1cc(C(F)(F)F)cc(C(F)(F)F)c1)C(=O)C(c1ccccc1)N1CCC(N2CCCCC2)CC1 (centres unmarked) [Example 73]
58 | > 240 °C (dec.) |  | O=C(Nc1ccccc1)C1CCN(C(C(=O)NCc2cc(C(F)(F)F)cc(C(F)(F)F)c2)c2ccccc2)CC1 (centres unmarked) [Example 19]

Row | SMILES | melting point | Ki [1]
59 | CN(CCc1cc(C(F)(F)F)cc(C(F)(F)F)c1)C(=O)C(c1ccccc1)N1CCC(C#N)(c2ccccc2)CC1.Cl (centres unmarked) [Example 75] | 91 to 98 °C | 180 nM
